These results are taken from ChEMBL document CHEMBL1687773 (Antimicrob Agents Chemother, 2010).

In one data set the test system is PBMC. Description: Cytotoxicity against human PBMC cells by aqueous nonradioactive cell proliferation assay. The class given is cell-based.
The test system of data set [1] is Human immunodeficiency virus 1. In words: Ratio of EC50 for wild type HIV1 NL4-3 to EC50 for HIV1 NL4-3 harboring reverse transcriptase E233V mutant. The class given is functional.

Consider `CCc1nn(CCO)c(CC)c1Oc1cc(C#N)cc(C#N)c1` [LERSIVIRINE], for which, in the data set with PBMC, the CC30 was determined as 96.9 µM. In addition, the “Ratio EC50” value in data set [1] came out at 10.
